The target of this assay is T1, human AspH (His6-AspH315–758) (Homo sapiens, UniProt Q12797).
T1 construct: N-Terminally His6-tagged human AspH315–758 (His6-AspH315–758) was produced in Escherichia coli BL21 (DE3) cells; made in house; host or cells: Escherichia coli BL21 (DE3), pET-28a(+) vector
T1 sequence (Q12797 315-758): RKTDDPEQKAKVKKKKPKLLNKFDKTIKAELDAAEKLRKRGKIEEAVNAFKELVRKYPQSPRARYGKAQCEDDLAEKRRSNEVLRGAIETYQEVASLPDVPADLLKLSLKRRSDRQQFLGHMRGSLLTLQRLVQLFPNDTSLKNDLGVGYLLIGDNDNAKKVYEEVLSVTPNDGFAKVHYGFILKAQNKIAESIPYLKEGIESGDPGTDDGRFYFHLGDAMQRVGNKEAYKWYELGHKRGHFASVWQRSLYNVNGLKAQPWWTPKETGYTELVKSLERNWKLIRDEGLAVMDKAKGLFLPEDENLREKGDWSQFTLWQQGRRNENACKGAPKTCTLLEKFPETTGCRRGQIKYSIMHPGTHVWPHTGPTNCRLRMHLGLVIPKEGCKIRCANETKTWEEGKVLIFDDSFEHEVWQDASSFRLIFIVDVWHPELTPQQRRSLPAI
The assay is described as follows: SPE-MS AspH inhibition assay (hFX-CP101-119 substrate hydroxylation). In kind it is biochemical.

Where [1] appears, read: AspH-inhibitor screening, 384-well Plate 1.
Where [2] appears, read: AspH-inhibitor screening, 384-well Plate 1, substrate conversion.
The mark [3] stands for this setting: AspH-inhibitor screening, Plate 1-duplicate.
Where [4] appears, read: AspH-inhibitor screening, Plate 1-duplicate, substrate conversion.

Structures can show the parent of a compound that is named as a salt. Where two headings read alike, the source gives them in different places.

As for `O=C(c1ccc(F)c(F)c1Nc1ccc(I)cc1F)N1CC(O)([C@@H]2CCCCN2)C1` [Cobimetinib], the “Plate 1 (% inhibition)” value under setting [1] is given as -5.94%. Also, the “Plate 1 (% conversion)” value under setting [2] came to 52.49%. Under setting [3], the “Plate 1-duplicate (% inhibition)” value is recorded as -8.08%. Moreover, the “Plate 1-duplicate (% conversion)” value under setting [4] is on record as 56.05%.
In the case of `COc1ccc(Cl)c(Nc2nc3ccccc3nc2NS(=O)(=O)c2cccc(NC(=O)C(C)(C)N)c2)c1` [XL-147], the “Plate 1 (% inhibition)” value under setting [1] came out at 3.96%. Also, the “Plate 1 (% conversion)” value under setting [2] is 47.92%. Besides, the “Plate 1-duplicate (% inhibition)” value under setting [3] was 7.32%. For the same compound, under setting [4], the “Plate 1-duplicate (% conversion)” value is 48.41%.
On to `O=c1[nH]cc(F)c(=O)[nH]1` [Fluorouracil], for which the “Plate 1 (% inhibition)” value under setting [1] was determined as 7.47%. Moreover, the “Plate 1 (% conversion)” value under setting [2] is listed as 46.30%. Besides, the “Plate 1-duplicate (% inhibition)” value under setting [3] came to 5.36%. Also, under setting [4], the “Plate 1-duplicate (% conversion)” value was determined as 49.38%.
In the same order, the values of `CC(=O)c1c(C)c2cnc(Nc3ccc(N4CCNCC4)cn3)nc2n(C2CCCC2)c1=O` [Palbociclib] are 13.54%, 43.50%, 4.20% and 49.96%.
In the same order, the values of `Cl.O=C(/C=C/c1cccnc1)NCCCCC1CCN(C(=O)c2ccccc2)CC1` [FK-866 HCl_Daporinad] are 2.15%, 48.76%, -6.78% and 55.40%.
Consider `C#Cc1cccc(Nc2ncnc3cc(OCCOC)c(OCCOC)cc23)c1` [Erlotinib hydrochloride], for which the “Plate 1 (% inhibition)” value under setting [1] is reported as -99.93%. Under setting [2], the “Plate 1 (% conversion)” value is 95.90%. Moreover, under setting [3], the “Plate 1-duplicate (% inhibition)” value was -12.97%. The “Plate 1-duplicate (% conversion)” value under setting [4] was 58.47%.
For the compound `CC(=O)c1c(C)c2cnc(Nc3ccc(N4CCNCC4)cn3)nc2n(C2CCCC2)c1=O` [PD-0332991], under setting [1], the “Plate 1 (% inhibition)” value worked out at 1.12%. For the same compound, the “Plate 1 (% conversion)” value under setting [2] worked out at 49.23%. For the same compound, the “Plate 1-duplicate (% inhibition)” value under setting [3] is -1.13%. Besides, the “Plate 1-duplicate (% conversion)” value under setting [4] turned out to be 52.60%.
On to `O=P1(N(CCCl)CCCl)NCCCO1` (stereo not drawn) [Cyclophosphamide], for which the “Plate 1 (% conversion)” value is 44.96%, the “Plate 1 (% inhibition)” value is reported as 10.37%, the “Plate 1-duplicate (% conversion)” value is 48.17% and the “Plate 1-duplicate (% inhibition)” value is reported as 7.81%.
Take `CCc1cnn2c(NCc3ccc[n+]([O-])c3)cc(N3CCCC[C@H]3CCO)nc12` [Dinaciclib (SCH727965)]: under setting [1], the “Plate 1 (% inhibition)” value was 1.39%. The “Plate 1 (% conversion)” value under setting [2] was 49.11%. In addition, the “Plate 1-duplicate (% inhibition)” value under setting [3] was 2.62%. Moreover, the “Plate 1-duplicate (% conversion)” value under setting [4] was 50.74%.
For `COC(=O)c1ccc2c(c1)NC(=O)/C2=C(\Nc1ccc(N(C)C(=O)CN2CCN(C)CC2)cc1)c1ccccc1` [BIBF 1120_Nintedanib], under setting [1], the “Plate 1 (% inhibition)” value is given as -13.53%. Further, under setting [2], the “Plate 1 (% conversion)” value is listed as 56.00%. Moreover, under setting [3], the “Plate 1-duplicate (% inhibition)” value is given as -2.41%. Further, the “Plate 1-duplicate (% conversion)” value under setting [4] turned out to be 53.24%.
Regarding `CCn1c(C(=O)N(C2CC2)C2CC2)cc2c3c(ncn3C)c(Nc3cc(C)n(C)n3)nc21` [BMS-911543], the “Plate 1 (% inhibition)” value under setting [1] is -9.55%. Under setting [2], the “Plate 1 (% conversion)” value is given as 54.16%. The “Plate 1-duplicate (% inhibition)” value under setting [3] is listed as -14.91%. For the same compound, the “Plate 1-duplicate (% conversion)” value under setting [4] turned out to be 59.44%.
In the same order, the values of `COc1cc(O)c2c(c1)/C=C/C[C@H](O)[C@H](O)C(=O)/C=C\C[C@H](C)OC2=O` [(5Z)-7-Oxozeaenol] are 21.38%, 39.88%, 23.66% and 40.31%.
In the same order, the values of `Clc1ccc(C(c2ccccc2Cl)C(Cl)Cl)cc1` (stereo not drawn) [Mitotane] are 14.44%, 43.08%, 17.86% and 43.18%.
Take `CS(=O)(=O)OCCCCOS(C)(=O)=O` [Busulfan]: the “Plate 1 (% inhibition)” value under setting [1] was 14.61%. The “Plate 1 (% conversion)” value under setting [2] was 43.00%. Under setting [3], the “Plate 1-duplicate (% inhibition)” value is given as 8.69%. Under setting [4], the “Plate 1-duplicate (% conversion)” value turned out to be 47.73%.
For the compound `CCc1c2c(nc3ccc(OC(=O)N4CCC(N5CCCCC5)CC4)cc13)-c1cc3c(c(=O)n1C2)COC(=O)[C@]3(O)CC` [Irinotecan], the “Plate 1 (% inhibition)” value under setting [1] is 1.66%. Further, the “Plate 1 (% conversion)” value under setting [2] is listed as 48.98%. The “Plate 1-duplicate (% inhibition)” value under setting [3] is given as -3.53%. Under setting [4], the “Plate 1-duplicate (% conversion)” value came out at 53.79%.
As to `CN1CCc2c(c3ccccc3n2Cc2ccc(C(=O)NO)cc2)C1.Cl` [Tubastatin A HCl], the “Plate 1 (% inhibition)” value under setting [1] was -13.29%. Besides, the “Plate 1 (% conversion)” value under setting [2] is given as 55.89%. Under setting [3], the “Plate 1-duplicate (% inhibition)” value is recorded as -15.22%. In addition, the “Plate 1-duplicate (% conversion)” value under setting [4] was 59.59%.
Take `COc1ccc(-c2cc3c(C)nc(N)nc3n([C@H]3CC[C@H](OCCO)CC3)c2=O)cn1` [PF-04691502]: the “Plate 1 (% inhibition)” value under setting [1] is -6.58%. The “Plate 1 (% conversion)” value under setting [2] was 52.79%. Besides, the “Plate 1-duplicate (% inhibition)” value under setting [3] is reported as -5.13%. In addition, under setting [4], the “Plate 1-duplicate (% conversion)” value is 54.58%.
On to `CO[C@@H]1[C@H](N(C)C(=O)c2ccccc2)C[C@H]2O[C@]1(C)n1c3ccccc3c3c4c(c5c6ccccc6n2c5c31)C(=O)NC4` [PKC412_Midostaurin], for which the “Plate 1 (% conversion)” value under setting [2] was 7.13%. In addition, the “Plate 1-duplicate (% conversion)” value under setting [4] was found to be 6.90%.
Consider `Cn1cc(-c2[nH]c3cc(NC(=O)[C@H](N)C4CCCCC4)cc4c3c2C=NNC4=O)cn1` [PF 477736], for which the “Plate 1 (% inhibition)” value under setting [1] was -54.30%. Also, the “Plate 1 (% conversion)” value under setting [2] was determined as 74.83%. For the same compound, under setting [3], the “Plate 1-duplicate (% inhibition)” value is recorded as -54.03%. Further, the “Plate 1-duplicate (% conversion)” value under setting [4] was 78.84%.
As for `CO[C@H]1C[C@@H]2CC[C@@H](C)[C@@](O)(O2)C(=O)C(=O)N2CCCC[C@H]2C(=O)O[C@H]([C@H](C)C[C@@H]2CC[C@@H](OC(=O)C(C)(CO)CO)[C@H](OC)C2)CC(=O)[C@H](C)/C=C(\C)[C@@H](O)[C@@H](OC)C(=O)[C@H](C)C[C@H](C)/C=C/C=C/C=C/1C` [Temsirolimus], the “Plate 1 (% inhibition)” value under setting [1] amounted to 35.77%. Further, the “Plate 1 (% conversion)” value under setting [2] is 33.23%. Further, the “Plate 1-duplicate (% inhibition)” value under setting [3] worked out at 28.92%. Moreover, the “Plate 1-duplicate (% conversion)” value under setting [4] was 37.70%.
Turning to `C[C@@H]1CCN(C(=O)CC#N)C[C@@H]1N(C)c1ncnc2[nH]ccc12` [Tasocitinib_Tofacitinib], the “Plate 1 (% inhibition)” value under setting [1] turned out to be 9.63%. The “Plate 1 (% conversion)” value under setting [2] was 45.30%. Further, under setting [3], the “Plate 1-duplicate (% inhibition)” value is given as 6.13%. Moreover, the “Plate 1-duplicate (% conversion)” value under setting [4] is 49.00%.
In the same order, the values of `Cc1cn(-c2cc(NC(=O)c3ccc(C)c(Nc4nccc(-c5cccnc5)n4)c3)cc(C(F)(F)F)c2)cn1` [Nilotinib] are -10.38%, 54.54%, -7.89% and 55.95%.
For `CCN1CCN(c2ccc(Nc3cc(N(C)C(=O)Nc4c(Cl)c(OC)cc(OC)c4Cl)ncn3)cc2)CC1` [NVP-BGJ398], the “Plate 1 (% inhibition)” value under setting [1] is on record as -4.10%. The “Plate 1 (% conversion)” value under setting [2] stood at 51.64%. For the same compound, the “Plate 1-duplicate (% inhibition)” value under setting [3] is recorded as -20.49%. Further, the “Plate 1-duplicate (% conversion)” value under setting [4] was determined as 62.20%.

Source of the values: publication PMC7588595, “Small-molecule active pharmaceutical ingredients of approved cancer therapeutics inhibit human aspartate/asparagine-β-hydroxylase” (Bioorganic & Medicinal Chemistry, 2020).
